Results as given in patent publication US6689754B1, “Heterocyclic glycyl β-alanine derivatives” (G. D. Searle & Co., priority 1998, dated 2004).
pIC50: −log10 of the molar value.

Legend:
[1] = biological target: T1, Human fibrinogen receptor IIb/IIIa (Homo sapiens, UniProt P05106+P08514); assay: Purified IIb/IIIa receptor assay: solid phase receptor assay, competition with biotinylated vitronectin; type: binding; settings: 1 nM biotinylated vitronectin
T1 construct: Human fibrinogen receptor ([…]) was purified from outdated platelets; from tissue; host or cells: outdated human platelets
From the text: Purified IIb/IIIa Receptor Assay
Human fibrinogen receptor ([…]) was purified from outdated platelets. (Pytela, R., Pierschbacher, M. D., Argraves, S., Suzuki, S., and Rouslahti, E. “Arginine-Glycine-Aspartic acid adhesion receptors”, Methods in Enzymology 144(1987):475-489.) Human vitronectin was purified from fresh frozen plasma as described in Yatohgo, T., Izumi, M., Kashiwagi, H., and Hayashi, M., “Novel purification of vitronectin from human plasma by heparin affinity chromatography,” Cell Structure and Function 13(1988):281-292. Biotinylated human vitronectin was prepared by coupling NHS-biotin from Pierce Chemical Company (Rockford, Ill.) to purified vitronectin as previously described. (Charo, I. F., Nannizzi, L., Phillips, D. R., Hsu, M. A., Scarborough, R. M., “Inhibition of fibrinogen binding to GP IIb/IIIa by a GP IIIa peptide”, J. Biol. Chem. 266(3)(1991): 1415-1421.) Assay buffer, OPD substrate tablets, and RIA grade BSA were obtained from Sigma (St. Louis, Mo.). Anti-biotin antibody was obtained from Calbiochem (La Jolla, Calif.). Linbro microtiter plates were obtained from Flow Labs (McLean, Vs.). ADP reagent was obtained from Sigma (St. Louis, Mo.).
This assay is essentially the same reported in Niiya, K., Hodson, E., Bader, R., Byers-Ward, V. Koziol, J. A., Plow, E. F. and Ruggeri, Z. M., “Increased surface expression of the membrane glycoprotein IIb/IIIa complex induced by platelet activation: Relationships to the binding of fibrinogen and platelet aggregation”, Blood 70(1987):475-483. The purified human fibrinogen receptor ([…]) was diluted from stock solutions to 1.0 μg/mL in Tris-buffered saline containing 1.0 mM Ca^++, Mg^++, and Mn^++, pH 7.4 (TBS^+++). The diluted receptor was immediately transferred to Linbro microtiter plates at 100 μL/well (100 ng receptor/well). The plates were sealed and incubated overnight at 4° C. to allow the receptor to bind to the wells. All remaining Steps were at room temperature. The assay plates were emptied and 200 μL of 1% RIA grade BSA in TBS^+++ (TBS^+++/BSA) were added to block exposed plastic surfaces. Following a 2 hour incubation, the assay plates were washed with TBS^+++ using a 96 well plate washer. Logarithmic serial dilution of the test compound and controls were made starting at a stock concentration of 2 mM and using 2 nM biotinylated vitronectin in TBS^+++/BSA as the diluent. This premixing of labeled ligand with test (or control) ligand, and subsequent transfer of 50 μL aliquots to the assay plate was carried out with a CETUS Propette robot; the final concentration of the labeled ligand was 1 nM and the highest concentration of test compound was 1.0×10^−4 M. The competition occurred for two hours after which all wells were washed with a plate washer as before. Affinity purified horseradish peroxidase labeled goat anti-biotin antibody was diluted 1:3000 in TBS^+++/BSA and 125 μL were added to each well. After 30 minutes, the plates were washed and incubated with […] substrate in 100 mM/L citrate buffer, pH 5.0. The plate was read with a microtiter plate reader at a wavelength of 450 nm and when the maximum-binding control wells reached an absorbance of about 1.0, the final A450 were recorded for analysis. The data were analyzed using a macro written for use with the EXCELJ spreadsheet program. The mean, standard deviation, and % CV were determined for duplicate concentrations. The mean A450 values were normalized to the mean of four maximum-binding controls (no competitor added)(B-MAX). The normalized values were subjected to a four parameter curve fit algorithm, [Robard et al., Int. Atomic Energy Agency.

[2] = biological target: T2, Human vitronectin receptor (αvβ3) (Homo sapiens, UniProt P05106+P06756); assay: Vitronectin adhesion assay: solid phase receptor assay, competition with biotinylated vitronectin; type: binding; settings: purified human vitronectin receptor; 1 nM biotinylated vitronectin
T2 construct: Human vitronectin receptor (αvβ3) was purified from human placenta; from tissue; host or cells: human placenta
Procedure: Vitronectin Adhesion Assay
Human vitronectin receptor (αvβ3) was purified from human placenta as previously described [Pytela et al., Methods in Enzymology, 144:475-489 (1987)]. Human vitronectin was purified from fresh frozen plasma as previously described [Yatohgo et al., Cell Structure and Function, 13:281-292 (1988)]. Biotinylated human vitronectin was prepared by coupling NHS-biotin from Pierce Chemical Company (Rockford, Ill.) to purified vitronectin as previously described [Charo et al., J. Biol. Chem., 266(3):1415-1421 (1991)]. Assay buffer, OPD substrate tablets, and RIA grade BSA were obtained from Sigma (St. Louis, Mo.). Anti-biotin antibody was obtained from Calbiochem (La Jolla, Calif.). Linbro microtiter plates were obtained from Flow Labs (McLean, Va.). ADP reagent was obtained from Sigma (St. Louis, Mo.).
This assay was essentially the same as previously reported [Niiya et al., Blood, 70:475-483 (1987)]. The purified human vitronectin receptor (αvβ3) was diluted from stock solutions to 1.0 μg/mL in Tris-buffered saline containing 1.0 mM Ca^++, Mg^++, and Mn^++, pH 7.4 (TBS^+++). The diluted receptor was immediately transferred to Linbro microtiter plates at 100 μL/well (100 ng receptor/well). The plates were sealed and incubated overnight at 4° C. to allow the receptor to bind to the wells. All remaining steps were at room temperature. The assay plates were emptied and 200 μL of 1% RIA grade BSA in TBS^+++ (TBS^+++/BSA) were added to block exposed plastic surfaces. Following a 2 hour incubation, the assay plates were washed with TBS^+++ using a 96 well plate washer. Logarithmic serial dilution of the test compound and controls were made starting at a stock concentration of 2 mM and using 2 nM biotinylated vitronectin in TBS^+++/BSA as the diluent. This premixing of labeled ligand with test (or control) ligand, and subsequent transfer of 50 μL aliquots to the assay plate was carried out with a CETUS Propette robot; the final concentration of the labeled ligand was 1 nM and the highest concentration of test compound was 1.0×10^−4 M. The competition occurred for two hours after which all wells were washed with a plate washer as before. Affinity purified horseradish peroxidase labeled goat anti-biotin antibody was diluted 1:3000 in TBS^+++/BSA and 125 μL were added to each well. After 30 minutes, the plates were washed and incubated with OPD/H2O2 substrate in 100 mM/L Citrate buffer, pH 5.0. The plate was read with a microtiter plate reader at a wavelength of 450 nm and when the maximum-binding control wells reached an absorbance of about 1.0, the final A450 were recorded for analysis. The data were analyzed using a macro written for use with the EXCELJ spreadsheet program. The mean, standard deviation, and % CV were determined for duplicate concentrations. The mean A450 values were normalized to the mean of four maximum-binding controls (no competitor added)(B-MAX). The normalized values were subjected to a four parameter curve fit algorithm [Rodbard et al., Int.

pIC50 [1]	pIC50 [2]	SMILES
5.61	5.72	O=C(O)C[C@H](NC(=O)CNC(=O)c1cscc1CNC1=NCC(O)CN1)c1cc(Cl)cc(Cl)c1O (stereo partly shown) [Example 39]
6.53	9.39	O=C(O)CC(NC(=O)CNC(=O)c1cncc(NC2=NCCN2)c1)c1cc(Cl)cc(Cl)c1O (stereo not shown) [Example 3]
